Patent US7135475B2, “Amide substituted xanthine derivatives” (Hoffmann-La Roche Inc., priority 2002, dated 2006)

Molecular target: T1, recombinant human cytosolic PEPCK (Homo sapiens, UniProt P35558)
T1 sequence (P35558 1-622): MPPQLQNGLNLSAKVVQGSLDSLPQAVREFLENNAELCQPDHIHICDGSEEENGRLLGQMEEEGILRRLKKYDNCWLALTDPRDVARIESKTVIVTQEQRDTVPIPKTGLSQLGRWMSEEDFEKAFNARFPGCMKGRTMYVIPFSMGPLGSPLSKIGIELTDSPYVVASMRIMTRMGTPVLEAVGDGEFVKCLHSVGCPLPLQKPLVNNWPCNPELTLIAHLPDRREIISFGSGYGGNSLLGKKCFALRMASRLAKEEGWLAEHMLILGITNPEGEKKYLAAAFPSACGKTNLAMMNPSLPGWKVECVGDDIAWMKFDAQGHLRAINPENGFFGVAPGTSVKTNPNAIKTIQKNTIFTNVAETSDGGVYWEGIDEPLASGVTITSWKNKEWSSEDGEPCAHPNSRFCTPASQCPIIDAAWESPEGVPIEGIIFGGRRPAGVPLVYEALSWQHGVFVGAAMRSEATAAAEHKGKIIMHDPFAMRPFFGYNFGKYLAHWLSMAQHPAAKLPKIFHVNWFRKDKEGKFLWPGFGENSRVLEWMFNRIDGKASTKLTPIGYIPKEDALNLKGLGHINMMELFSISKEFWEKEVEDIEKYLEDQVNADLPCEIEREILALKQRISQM
Test: PEPCK enzyme assay (coupled pyruvate kinase/lactate dehydrogenase, absorbance at 340)
Format: biochemical
Conditions: recombinant human cytosolic GST-PEPCK; GTP and OAA at 3 fold and 10 fold Km; final DMSO 10%; room temperature, twenty minutes; read-out: In vitro IC50
Description: E. coli cells expressing GST-PEPCK were suspended in 5 volumes of lysis buffer (50 mM Tris-hydroxymethyl aminomethyl (TRIS), 150 mM sodium chloride (NaCl), 10 mM ethylene-diametetraacetic acid (EDTA), 5 mM dithiothreitol(DTT), 1% Nonidet P-40, pH 7.4) in the presence of protease inhibitors, incubated with lysozyme at 200 micrograms/ml for 30 min. at room temperature, and sonicated 4×30 seconds at 4 degrees C. After centrifugation at 12,000×g for 20 min. to remove insoluble material, the supernatant was loaded onto glutathione Sepharose (Pharmacia), washed with lysis buffer followed by washing with lysis buffer in the absence of NP-40. GST-PEPCK was eluted with the same buffer containing 20 mM glutathione. The eluted protein was concentrated and dialyzed against 25 mM Hepes(N-[2-hydroxyethyl]piperazine-N′[2-ethanesulfonic acid), 150 mM NaCl, 2.5 mM EDTA, 5 mM DTT, 30% glycerol, pH 7.4, and stored at −20 ° C.
The inhibitory effect of the compounds of the present invention on PEPCK enzymatic activity was determined using recombinant human cytosolic PEPCK, expressed and purified from E.coli as a GST-fusion. Guanosine triphosphate (GTP) and manganese dependent PEPCK enzyme activity catalyzed the decarboxylation of oxalacetate leading to the formation of guanosine diphosphate (GDP) and phosphoenol pyruvate (PEP). This reaction is coupled to pyruvate kinase and lactate dehydrogenase catalyzed reactions and the overall reaction rate determined by measuring the change in absorbance at 340 nm (Chang, H. C. and Lane M. D., J. Biol.Chem. 241:2413–2420, 1966). The following modifications were made to the protocol: 2.5 μg of recombinant, human cytosolic glutathione-S-transferase (GST)-PEPCK was added to a reaction mixture at room temperature which contained 0.3 mM GTP, 0.3 mM oxaloacetate (OAA), 3 mM magnesium chloride (MgCl2), 0.075 mM manganese chloride (MnCl2), 30 mM potassium phosphates (KPO4), pH 7.6, 1 mM dithiothreitol (DTT), 0.2 mM adenosine diphosphate (ADP), 1 mM nicotinamide adenine dinucleotide, reduced form (NADH), 0.9 Units/ml each of pyruvate kinase and lactate dehydrogenase and 1 mg/ml bovine serum albumin (BSA). Test compounds were added such that final concentration of DMSO was 10%. Reactions were run for twenty minutes.
Km values for GTP and OAA were determined according to Michelis-Menton conditions as described in Cornish-Bowden (Fundamentals of Enzyme Kinetics, 1995) in essentially the coupled assay conditions described above. […] Test compounds were added to reactions over a range of concentrations and IC50's were calculated from plots of inhibitor concentration versus enzyme rate. This method of determination of IC50 values is equally applicable to calculations based on PEPCK cellular assay.
The in vitro biological activity of several representative preferred compounds of the present invention in the foregoing PEPCK enzymatic assay is presented in Table 1.

Compound | IC50 [µM]
Cc1ccc(C(=O)N(C)c2ccc(Cc3nc4c([nH]3)c(=O)n(Cc3ccccc3F)c(=O)n4CC3CC3)cc2)cn1 [Example 86, N-{4-[3-cyclopropylmethyl-1-(2-fluorobenzyl)-2,6-dioxo-2,3,6,7-tetrahydro-1H-purin-8-ylmethyl]-phenyl}-6,N-dimethyl-nicotinamide] | 0.42
Cc1nc(C)c(C(=O)N(C)c2ccc(Cc3nc4c([nH]3)c(=O)n(Cc3ccccc3F)c(=O)n4CC3CC3)cc2)s1 [Example 105, 2,4-Dimethyl-thiazole-5-carboxylic acid {4-[3-cyclopropylmethyl-1-(2-fluorobenzyl)-2,6-dioxo-2,3,6,7-tetrahydro-1H-purin-8-ylmethyl]-phenyl}-methyl-amide] | 0.32
CC(=O)Nc1csc(C)c1C(=O)N(C)c1ccc(Cc2nc3c([nH]2)c(=O)n(Cc2ccccc2F)c(=O)n3CC2CC2)cc1 [Example 113, 4-Acetylamino-2-methyl-thiophene-3-carboxylic acid {4-[3-cyclopropylmethyl-1-(2-fluorobenzyl)-2,6-dioxo-2,3,6,7-tetrahydro-1H-purin-8-ylmethyl]-phenyl}-methyl-amide] | 0.74
Cc1nn(C)cc1C(=O)N(C)c1ccc(Cc2nc3c([nH]2)c(=O)n(Cc2ccccc2F)c(=O)n3CC2CC2)cc1 [Example 107, 1,3-Dimethyl-1H-pyrazole-4-carboxylic acid {4-[3-cyclopropylmethyl-1-(2-fluorobenzyl)-2,6-dioxo-2,3,6,7-tetrahydro-1H-purin-8-ylmethyl]-phenyl}-methyl-amide] | 0.5
CC(=O)Nc1ccc(Cc2nc3c([nH]2)c(=O)n(Cc2ccccc2F)c(=O)n3C[C@@H]2C[C@@H]2C(=O)O)cc1 (relative stereo) [Example 47, 2-[8-(4-Acetylamino-benzyl)-1-(2-fluorobenzyl)-2,6-dioxo-1,2,6,7-tetrahydro-purin-3-ylmethyl]-cyclopropanecarboxylic acid] | 0.56
CN(C(=O)c1cccnc1)c1ccc(Cc2nc3c([nH]2)c(=O)n(Cc2ccccc2F)c(=O)n3CC2CC2)cc1 [Example 97, N-{4-[3-Cyclopropylmethyl-1-(2-fluorobenzyl)-2,6-dioxo-2,3,6,7-tetrahydro-1H-purin-8-ylmethyl]-phenyl}-N-methyl-nicotinamide] | 0.42
CN(C(=O)c1cccnc1O)c1ccc(Cc2nc3c([nH]2)c(=O)n(Cc2ccccc2F)c(=O)n3CC2CC2)cc1 [Example 101, N-{4-[3-Cyclopropylmethyl-1-(2-fluorobenzyl)-2,6-dioxo-2,3,6,7-tetrahydro-1H-purin-8-ylmethyl]-phenyl}-2-hydroxy-N-methyl-nicotinamide] | 0.63
CN(C(=O)c1cnccn1)c1ccc(Cc2nc3c([nH]2)c(=O)n(Cc2ccccc2F)c(=O)n3CC2CC2)cc1 [Example 99, Pyrazine-2-carboxylic acid {4-[3-cyclopropylmethyl-1-(2-fluorobenzyl)-2,6-dioxo-2,3,6,7-tetrahydro-1H-purin-8-ylmethyl]-phenyl}-methyl-amide] | 0.46
Cc1nn(C)c(C)c1C(=O)N(C)c1ccc(Cc2nc3c([nH]2)c(=O)n(Cc2ccccc2F)c(=O)n3CC2CC2)cc1 [Example 102, 1,3,5-Trimethyl-1H-pyrazole-4-carboxylic acid {4-[3-cyclopropylmethyl-1-(2-fluorobenzyl)-2,6-dioxo-2,3,6,7-tetrahydro-1H-purin-8-ylmethyl]-phenyl}-methyl-amide] | 0.23
CN(C(=O)c1cncnc1)c1ccc(Cc2nc3c([nH]2)c(=O)n(Cc2ccccc2F)c(=O)n3CC2CC2)cc1 [Example 96, Pyrimidine-5-carboxylic acid {4-[3-cyclopropylmethyl-1-(2-fluorobenzyl)-2,6-dioxo-2,3,6,7-tetrahydro-1H-purin-8-ylmethyl]-phenyl}-methyl-amide] | 0.38
Cc1nc(N)sc1C(=O)N(C)c1ccc(Cc2nc3c([nH]2)c(=O)n(Cc2ccccc2F)c(=O)n3CC2CC2)cc1 [Example 106, 2-Amino-4-methyl-thiazole-5-carboxylic acid {4-[3-cyclopropylmethyl-1-(2-fluorobenzyl)-2,6-dioxo-2,3,6,7-tetrahydro-1H-purin-8-ylmethyl]-phenyl}-methyl-amide] | 0.37
CN(C(=O)c1cnn(C)c1)c1ccc(Cc2nc3c([nH]2)c(=O)n(Cc2ccccc2F)c(=O)n3CC2CC2)cc1 [Example 112, 1-Methyl-1H-pyrazole-4-carboxylic acid {4-[3-cyclopropylmethyl-1-(2-fluorobenzyl)-2,6-dioxo-2,3,6,7-tetrahydro-1H-purin-8-ylmethyl]-phenyl}-methyl-amide] | 0.69
Cc1noc(C)c1C(=O)N(C)c1ccc(Cc2nc3c([nH]2)c(=O)n(Cc2ccccc2F)c(=O)n3CC2CC2)cc1 [Example 110, 3,5-Dimethyl-isoxazole-4-carboxylic acid {4-[3-cyclopropylmethyl-1-(2-fluorobenzyl)-2,6-dioxo-2,3,6,7-tetrahydro-1H-purin-8-ylmethyl]-phenyl}-methyl-amide] | 0.66
Cc1ccc(C(=O)N(CC2CCC2)c2ccc(Cc3nc4c([nH]3)c(=O)n(Cc3ccccc3F)c(=O)n4CC3CCC3)cc2)cn1 [Example 121, N-Cyclobutylmethyl-N-{4-[3-cyclobutylmethyl-1-(2-fluorobenzyl)-2,6-dioxo-2,3,6,7-tetrahydro-1H-purin-8-ylmethyl]-phenyl}-6-methyl-nicotinamide] | 0.39
CN(C(=O)c1ccc(O)nc1)c1ccc(Cc2nc3c([nH]2)c(=O)n(Cc2ccccc2F)c(=O)n3CC2CC2)cc1 [Example 100, N-{4-[3-Cyclopropylmethyl-1-(2-fluorobenzyl)-2,6-dioxo-2,3,6,7-tetrahydro-1H-purin-8-ylmethyl]-phenyl}-6-hydroxy-N-methyl-nicotinamide] | 0.55
CC(=O)Nc1cccc(C(=O)N(C)c2ccc(Cc3nc4c([nH]3)c(=O)n(Cc3ccccc3F)c(=O)n4CC3CC3)cc2)n1 [Example 79, 6-Acetylamino-pyridine-2-carboxylic acid {4-[3-cyclopropylmethyl-1-(2-fluorobenzyl)-2,6-dioxo-2,3,6,7-tetrahydro-1H-purin-8-ylmethyl]-phenyl}-methyl-amide] | 0.56
Cc1oncc1C(=O)N(C)c1ccc(Cc2nc3c([nH]2)c(=O)n(Cc2ccccc2F)c(=O)n3CC2CC2)cc1 [Example 114, 5-Methyl-isoxazole-4-carboxylic acid {4-[3-cyclopropylmethyl-1-(2-fluorobenzyl)-2,6-dioxo-2,3,6,7-tetrahydro-1H-purin-8-ylmethyl]-phenyl}-methyl-amide] | 0.74
Cc1ccc(C(=O)N(c2ccc(Cc3nc4c([nH]3)c(=O)n(Cc3ccccc3F)c(=O)n4CC3CC3)cc2)C(C)C)cn1 [Example 119, N-{4-[3-Cyclopropylmethyl-1-(2-fluorobenzyl)-2,6-dioxo-2,3,6,7-tetrahydro-1H-purin-8-ylmethyl]-phenyl}-N-isopropyl-6-methyl-nicotinamide] | 0.31
CC(=O)Nc1ccc(C(=O)N(C)c2ccc(Cc3nc4c([nH]3)c(=O)n(Cc3ccccc3F)c(=O)n4CC3CC3)cc2)cn1 [Example 98, 6-Acetylamino-N-{4-[3-cyclopropylmethyl-1-(2-fluorobenzyl)-2,6-dioxo-2,3,6,7-tetrahydro-1H-purin-8-ylmethyl]-phenyl}-N-methyl-nicotinamide] | 0.44
